US20110150980A1, “CGRP ANALOG” (VasoGenix Pharmaceuticals, Inc., priority 2009, published 2011)

Experiments:
[1] = system: non-sedated, non-naïve cynomolgus monkeys; experiment: Intravenous infusion in non-sedated, telemeterized non-human primates: blood pressure, heart rate, ECG (Example 2); assay type: in vivo
Procedure: Peptides were synthesized as in Example 1. […] Two non-naïve, telemeterized, male non-human primates (NHP “a” and “b”) were used for the test article(s) dosing regimen. […] Following a stabilized baseline period of approximately 30 minutes, one of the test article(s) was administered as an intravenous infusion via a femoral vein vascular access port (VAP) using a Pegasus PCA infusion pump for a period of 30 or 60 minutes. A minimum period of 30 minutes was allotted for the hemodynamic parameters to return to baseline prior to the next test article infusion dose. The process was repeated for each of the stated test articles. The same procedure was followed for the 1 hour infusion with 1 hour allotted for parameters to return to base line.
The non-human primates were previously surgically prepared with telemetry transducers, type TL11M2-D70-PCT (Data Sciences International). The acquisition and analysis was done using a Ponemah (Version 4.8 or higher) data acquisition and analysis system installed on the hard drive of a computer. The computer was equipped with disk drive for file back up on readable write-once only optical media (CD-R or DVD-R).
Prior to the first dose administration, baseline data was acquired. For each subsequent dose, data was collected for approximately 30 min postdose. Prior to the next dose, the hemodynamic parameters were allowed to return to a stable baseline±10%.
Systolic blood pressure (SYS or SBP), diastolic blood pressure (DBP), mean arterial pressure (MAP), heart rate (HR), and all lead II ECG variables were recorded. The telemetry data files were transferred to an Excel (MicroSoft® Version 2003) spreadsheet. The following variables from the lead II ECG were measured: PR interval, QRS duration, QT interval, RR interval, and QTcF interval (calculated as
A visual inspection of the entire collected ECG waveform for disturbances in rhythm and waveform morphology was performed. The data for selected time points were analyzed and assessed on completion of data acquisition and were the average of at least 30 beats (ABP and ECG) of data at the selected analysis time, when possible. The time points for both hemodynamic and ECG data analysis were an initial 30 min baseline prior to the first dose, at a 10 min during each infusion postdose interval relative to end of each infusion, and time points prior to the next test article infusion for each test compound.
Non-human primates were selected because they have the same RAMP 1-CGRP receptor complex as humans.

rats = conditions: 19 ng/kg/min; cited from earlier work
[2] = NHP a, dose day 2, during 30 minute infusions of 0.024 ug/kg/min
[3] = NHP a, dose day 3, during 30 minute infusions of 0.024 ug/kg/min
[4] = NHP a, dose day 3, during 1 hour infusion of 0.024 ug/kg/min
[5] = NHP b, dose day 2, during 30 minute infusions of 0.024 ug/kg/min
[6] = NHP b, dose day 3, during 30 minute infusions of 0.024 ug/kg/min
[7] = NHP b, dose day 3, during 1 hour infusion of 0.024 ug/kg/min
[8] = average of a 2, b 2, a 3, b 3, during 30 minute infusions of 0.024 ug/kg/min
[9] = average of a3, b3, during 1 hour infusion of 0.024 ug/kg/min

ACNTATCVTHRLAGLLSRSGGMVKSNFVPTNVGSKAF-NH2 [βCGRP]
course of heart rate during 1 hour infusion ([1]; 1 hour infusion of 0.024 ug/kg/min, after 30 minutes): Heart rate continues to drop after 30 minutes | Percent change in HR, a 2 [1, 2]: 1.2% | Percent change in mean BP, a 2 [1, 2]: −8.8% | Percent change in systolic BP, a 2 [1, 2]: −7.4% | Percent change in HR, a 3 [1, 3]: −13.6% | Percent change in mean BP, a 3 [1, 3]: −16.8% | Percent change in systolic BP, a 3 [1, 3]: −12.2% | Percent change in HR at 30 minutes, a3 [1, 4]: −13.6% | Percent change in HR at 60 minutes, a3 1 hr [1, 4]: −10.7% | Percent change in mean systolic BP at 30 minutes, a3 [1, 4]: −16.8% | Percent change in mean systolic BP at 60 minutes, a3 1 hr [1, 4]: 0.0% | Percent change in systolic BP at 30 minutes, a3 [1, 4]: −12.2% | Percent change in systolic BP at 60 minutes, a3 1 hr [1, 4]: −0.8% | Percent change in HR, b 2 [1, 5]: −21.3% | Percent change in mean BP, b 2 [1, 5]: −6.7% | Percent change in systolic BP, b 2 [1, 5]: −8.1% | Percent change in HR, b 3 [1, 6]: −22.0% | Percent change in mean BP, b 3 [1, 6]: −23.4% | Percent change in systolic BP, b 3 [1, 6]: −23.2% | Percent change in HR at 30 minutes, b3 [1, 7]: −22.0% | Percent change in HR at 60 minutes, b3 1 hr [1, 7]: −18.1% | Percent change in mean systolic BP at 30 minutes, b3 [1, 7]: −23.4% | Percent change in mean systolic BP at 60 minutes, b3 1 hr [1, 7]: −10.7% | Percent change in systolic BP at 30 minutes, b3 [1, 7]: −23.2% | Percent change in systolic BP at 60 minutes, b3 1 hr [1, 7]: −10.1% | Percent change in mean HR, a 2 ([1]; Table 14, NHP a, dose day 2, during 30 minute infusions of 0.024 ug/kg/min): 1.2% | Percent change in mean HR, a 3 ([1]; Table 14, NHP a, dose day 3, during 30 minute infusions of 0.024 ug/kg/min): −13.6% | Percent change in mean HR, b 2 ([1]; Table 14, NHP b, dose day 2, during 30 minute infusions of 0.024 ug/kg/min): −21.3% | Percent change in mean HR, b 3 ([1]; Table 14, NHP b, dose day 3, during 30 minute infusions of 0.024 ug/kg/min): −22.0% | Percent change in mean HR, HR ([1]; Table 14, average of a 2, b 2, a 3, b 3, during 30 minute infusions of 0.024 ug/kg/min): −13.9% | Percent change in mean HR at 30 minutes, a3 ([1]; Table 24, NHP a, dose day 3, during 1 hour infusion of 0.024 ug/kg/min): −13.6% | Percent change in mean HR at 30 minutes, b3 ([1]; Table 24, NHP b, dose day 3, during 1 hour infusion of 0.024 ug/kg/min): −22.0% | Percent change in mean HR at 30 minutes, HR T30 ([1]; Table 24, average of a3, b3, during 1 hour infusion of 0.024 ug/kg/min): −17.8% | Percent change in mean HR at 60 minutes, a3 1 hr ([1]; Table 25, NHP a, dose day 3, during 1 hour infusion of 0.024 ug/kg/min): −10.7% | Percent change in mean HR at 60 minutes, b3 1 hr ([1]; Table 25, NHP b, dose day 3, during 1 hour infusion of 0.024 ug/kg/min): −18.1% | Percent change in mean HR at 60 minutes, HR T60 ([1]; Table 25, average of a3, b3, during 1 hour infusion of 0.024 ug/kg/min): −14.4% | Percent change in HR, HR [1, 8]: −13.9% | Percent change in mean BP, BP [1, 8]: −13.9% | Percent change in systolic BP, BP [1, 8]: −12.7% | Percent change in HR at 30 minutes, HR T30 [1, 9]: −17.8% | Percent change in HR at 60 minutes, HR T60 [1, 9]: −14.4% | Percent change in mean systolic BP at 30 minutes, BP T30 [1, 9]: −20.1% | Percent change in mean systolic BP at 60 minutes, BP T60 [1, 9]: −5.4% | Percent change in systolic BP at 30 minutes, T30 [1, 9]: −17.7% | Percent change in systolic BP at 60 minutes, T60 [1, 9]: −5.4% | effect on heart rate ([1]; non-sedated cynomolgus monkeys, IV infusion): maintenance of pre-administration heart rate, and in some cases, reduction in heart rate | heart rate and blood pressure effect (rats): tachycardia with no significant hypotension
